Experimental data taken from ChEMBL document CHEMBL1671659, “In vitro and in vivo properties of dihydrophthalazine antifolates, a novel family of antibacterial drugs” (Antimicrob Agents Chemother, 2009).
Converted amounts (≈) assume the structure as drawn. The source made the active and inactive calls. The calls are words filed in the database; no cut-off is given here.

Assays:
[1] = Inhibition of trimethoprim-resistant Staphylococcus aureus Type S1 dihydrofolate reductase
[2] = system: Staphylococcus aureus; test: Antibacterial activity against vancomycin, trimethoprim, methicillin-resistant Staphylococcus aureus VRS1 harboring dfrA and dfrB genes; assay type: functional
[3] = biological target: Dihydrofolate reductase (Staphylococcus aureus, UniProt P0A017, F99Y); test: Inhibition of trimethoprim-resistant Staphylococcus aureus DfrB type dihydrofolate reductase F98Y mutant
[4] = system: Staphylococcus epidermidis; test: Antibacterial activity against methicillin, vancomycin, trimethoprim-sensitive Staphylococcus epidermidis ATCC 14990 harboring dfrC gene; assay type: functional
[5] = system: Staphylococcus aureus; test: Antibacterial activity against vancomycin, trimethoprim-sensitive and methicillin-resistant Staphylococcus aureus ATCC 43300 harboring dfrB gene; assay type: functional
[6] = Inhibition of trimethoprim-sensitive Staphylococcus aureus DfrB type dihydrofolate reductase
[7] = system: Staphylococcus aureus; test: Antibacterial activity against methicillin, vancomycin, trimethoprim-sensitive Staphylococcus aureus ATCC 29213 harboring dfrB gene; assay type: functional
[8] = system: Staphylococcus epidermidis; test: Antibacterial activity against methicillin, vancomycin-sensitive and trimethoprim-resistant Staphylococcus epidermidis BAS000635 harboring dfrC and dfrA genes; assay type: functional
[9] = system: Enterococcus faecium; test: Antibacterial activity against Enterococcus faecium in presence of 250 ug/ml thymidine; assay type: functional
[10] = system: Streptococcus pneumoniae; test: Antibacterial activity against Streptococcus pneumoniae in presence of 250 ug/ml thymidine; assay type: functional
[11] = system: Staphylococcus epidermidis; test: Antibacterial activity against methicillin-sensitive dfrA, dfrD-negative Staphylococcus epidermidis harboring F98Y mutation in dfrC gene; assay type: functional
[12] = system: Enterococcus faecium; test: Antibacterial activity against Enterococcus faecium; assay type: functional
[13] = system: Enterococcus faecium; test: Antibacterial activity against Enterococcus faecium in presence of 50 ug/ml thymidine; assay type: functional
[14] = system: Staphylococcus aureus; test: Antibacterial activity against trimethoprim-resistant Staphylococcus aureus BAS003908 infected in NMRI mouse model of septicemia; assay type: functional
[15] = system: Mus musculus; test: Hepatotoxicity in NMRI mouse assessed as increase in mitosis at 400 mg/kg administered through oral gavage for 5 days; assay type: toxicity, organism-based; parameters: dose 400 mg/kg, route oral; conditions: in vivo, 120 h
[16] = system: Staphylococcus aureus; test: Antibacterial activity against methicillin-resistant dfrB, dfrG-positive and dfrA-negative Staphylococcus aureus; assay type: functional
[17] = Tmax in NMRI mouse blood at 25 mg/kg administered through oral gavage measured after 7 hrs; assay type: ADME, organism-based; parameters: dose 25 mg/kg, route oral
[18] = system: Enterococcus faecalis; test: Antibacterial activity against Enterococcus faecalis; assay type: functional
[19] = Oral bioavailability in NMRI mouse; assay type: ADME, organism-based; conditions: in vivo
[20] = system: Enterococcus faecium; test: Antibacterial activity against vancomycin-sensitive dfrE, dfrF-negative and folA-positive Enterococcus faecium; assay type: functional
[21] = system: Haemophilus influenzae; test: Antibacterial activity against Haemophilus influenzae; assay type: functional
[22] = system: Streptococcus pneumoniae; test: Antibacterial activity against Streptococcus pneumoniae in presence of 50 ug/ml thymidine; assay type: functional
[23] = system: Enterococcus faecalis; test: Antibacterial activity against Enterococcus faecalis in presence of 250 ug/ml thymidine; assay type: functional
[24] = system: Mus musculus; test: Hepatotoxicity in NMRI mouse assessed as single-cell necrosis at 400 mg/kg administered through oral gavage for 5 days; assay type: toxicity, organism-based; parameters: dose 400 mg/kg, route oral; conditions: in vivo, 120 h
[25] = system: Enterococcus faecalis; test: Antibacterial activity against vancomycin-sensitive folA, dfrF-negative Enterococcus faecalis harboring A5T, K88N, F102Y mutation in dfrE gene; assay type: functional
[26] = system: Enterococcus faecalis; test: Antibacterial activity against vancomycin-sensitive dfrE, dfrF-positive and folA-negative Enterococcus faecalis; assay type: functional
[27] = system: Staphylococcus aureus; test: Antibacterial activity against methicillin-resistant dfrB, dfrA-positive and dfrA within SCCmec-N1, dfrG-negative Staphylococcus aureus; assay type: functional
[28] = Cmax in NMRI mouse blood at 25 mg/kg administered through oral gavage measured after 7 hrs; assay type: ADME, organism-based; parameters: dose 25 mg/kg, route oral
[29] = system: Staphylococcus epidermidis; test: Antibacterial activity against methicillin-sensitive dfrA-positive and dfrD-negative Staphylococcus epidermidis harboring F98Y mutation in dfrC gene; assay type: functional
[30] = system: Mycobacterium avium; test: Antibacterial activity against Mycobacterium avium assessed as inhibition of bacterial growth at <=4 ug/ml; assay type: functional; parameters: scale not given: the % may be the effect or the level left
[31] = system: Haemophilus influenzae; test: Antibacterial activity against Haemophilus influenzae in presence of 250 ug/ml thymidine; assay type: functional
[32] = system: Staphylococcus aureus; test: Antibacterial activity against trimethoprim-sensitive Staphylococcus aureus ATCC 29213 infected in NMRI mouse model of septicemia; assay type: functional
[33] = system: HeLa; test: Cytotoxicity against human HeLa cells; assay type: cell-based
[34] = system: Staphylococcus epidermidis; test: Antibacterial activity against methicillin-sensitive dfrC, dfrA-positive and dfrD-negative Staphylococcus epidermidis; assay type: functional
[35] = system: Staphylococcus aureus; test: Antibacterial activity against trimethoprim-resistant Staphylococcus aureus BAS003908; assay type: functional
[36] = AUC (0 to t) in NMRI mouse blood at 25 mg/kg administered through oral gavage after 7 hrs; assay type: ADME, organism-based; parameters: time < 7 hr, dose 25 mg/kg, route oral
[37] = system: Streptococcus pneumoniae; test: Antibacterial activity against Streptococcus pneumoniae
[38] = system: Staphylococcus aureus; test: Antibacterial activity against trimethoprim-sensitive Staphylococcus aureus ATCC 29213; assay type: functional
[39] = system: Mus musculus; test: Hepatotoxicity in NMRI mouse assessed as increase in mitosis at 400 mg/kg administered through oral gavage for 10 days; assay type: toxicity, organism-based; parameters: dose 400 mg/kg, route oral; conditions: in vivo, 240 h
[40] = system: Enterococcus faecalis; test: Antibacterial activity against Enterococcus faecalis in presence of 50 ug/ml thymidine; assay type: functional
[41] = system: Enterococcus faecium; test: Antibacterial activity against vancomycin-resistant dfrE, dfrF-negative and folA-positive Enterococcus faecium; assay type: functional
[42] = system: Mus musculus; test: Hepatotoxicity in NMRI mouse assessed as increase in liver weight at 400 mg/kg administered through oral gavage for 10 days; assay type: toxicity, organism-based; parameters: dose 400 mg/kg, route oral; conditions: in vivo, 240 h
[43] = system: Mus musculus; test: Hepatotoxicity in NMRI mouse assessed as inflammatory infiltrates at 400 mg/kg administered through oral gavage for 5 days; assay type: toxicity, organism-based; parameters: dose 400 mg/kg, route oral; conditions: in vivo, 120 h
[44] = system: Staphylococcus epidermidis; test: Antibacterial activity against methicillin-resistant dfrC, dfrA-positive and dfrA within SCCmec-N1, dfrD-negative Staphylococcus epidermidis; assay type: functional
[45] = system: Staphylococcus aureus; test: Antibacterial activity against trimethoprim-sensitive Staphylococcus aureus ATCC 29213 infected in NMRI mouse model of septicemia assessed as succumbed to infections at 1.6 mg/kg, iv; assay type: functional, organism-based; parameters: dose 1.6 mg/kg
[46] = system: Haemophilus influenzae; test: Antibacterial activity against Haemophilus influenzae in presence of 50 ug/ml thymidine
[47] = system: Staphylococcus epidermidis; test: Antibacterial activity against methicillin-sensitive dfrC-positive and dfrA, dfrD-negative Staphylococcus epidermidis; assay type: functional
[48] = system: Staphylococcus aureus; test: Antibacterial activity against methicillin-sensitive dfrB-positive abd dfrA, dfrG-negative Staphylococcus aureus; assay type: functional
[49] = system: Mus musculus; test: Hepatotoxicity in NMRI mouse assessed as increase in liver weight at 400 mg/kg administered through oral gavage for 5 days; assay type: toxicity, organism-based; parameters: dose 400 mg/kg, route oral; conditions: in vivo, 120 h
[50] = system: Staphylococcus aureus; test: Antibacterial activity against trimethoprim-sensitive Staphylococcus aureus ATCC 29213 infected in NMRI mouse model of septicemia assessed as complete protection from infections at 3.1 mg/kg, iv; assay type: functional, organism-based; parameters: dose 3.1 mg/kg
[51] = system: Mus musculus; test: Hepatotoxicity in NMRI mouse assessed as single-cell necrosis at 400 mg/kg administered through oral gavage for 10 days; assay type: toxicity, organism-based; parameters: dose 400 mg/kg, route oral; conditions: in vivo, 240 h
[52] = system: Mus musculus; test: Toxicity in po dosed NMRI mouse; assay type: organism-based; conditions: in vivo
[53] = system: Mus musculus; test: Hepatotoxicity in NMRI mouse assessed as inflammatory infiltrates at 400 mg/kg administered through oral gavage for 10 days; assay type: toxicity, organism-based; parameters: dose 400 mg/kg, route oral; conditions: in vivo, 240 h
[54] = system: Staphylococcus aureus; test: Antibacterial activity against methicillin-resistant dfrA within SCCmec-N1, dfrA and dfrG -negative Staphylococcus aureus harboring F98Y mutation in dfrB gene; assay type: functional
[55] = system: Mycobacterium avium; test: Antibacterial activity against Mycobacterium avium; assay type: functional

SMILES: COc1cc(Cc2cnc(N)nc2N)cc(/C=C/C(=O)N2N=Cc3ccccc3[C@H]2c2cnc(N(C)C)nc2)c1OC
- IC50 [1]: 1010 nM
- MIC [2]: > 8 µg/mL
- IC50 [3]: 2920 nM
- MIC [4]: 0.5 µg/mL (≈ 0.884 µM)
- MIC [5]: 2 µg/mL (≈ 3.54 µM)
- IC50 [6]: 37.6 nM
- MIC [7]: 2 µg/mL (≈ 3.54 µM)
- MIC [8]: > 8 µg/mL

SMILES: COc1cc(Cc2cnc(N)nc2N)cc(/C=C/C(=O)N2N=Cc3ccccc3C2c2cnc(N3CCOCC3)nc2)c1OC (stereo not given)
- MIC [9]: > 128 µg/mL
- MIC [10]: ≥ 128 µg/mL
- MIC [11]: 1 µg/mL (≈ 1.65 µM)
- MIC [12]: 2 µg/mL (≈ 3.29 µM)
- MIC [13]: ≥ 128 µg/mL
- IC50 [1]: 154 nM
- ED50 [14]: 1.6 mg/kg
- Activity [15]: < 10%
- MIC [16]: 64 µg/mL (≈ 105 µM)
- Tmax [17]: 6 h
- MIC [2]: 2 µg/mL (≈ 3.29 µM)
- IC50 [3]: 124 nM
- MIC [4]: 0.25 µg/mL (≈ 0.411 µM)
- MIC [18]: 0.5 µg/mL (≈ 0.823 µM)
- bioavailability [19]: 29%
- MIC [20]: ≤ 0.25 µg/mL
- MIC [21]: > 128 µg/mL
- MIC [5]: 0.5 µg/mL (≈ 0.823 µM)
- MIC [22]: ≥ 128 µg/mL
- IC50 [6]: 12.2 nM
- MIC [23]: 2 µg/mL
- MIC [7]: 1 µg/mL (≈ 1.65 µM)
- Activity [24]: < 10%
- MIC [25]: 1 µg/mL (≈ 1.65 µM)
- MIC [26]: > 128 µg/mL
- MIC [27]: 1 µg/mL (≈ 1.65 µM)
- MIC ([27]; Staphylococcus aureus, read-out: MIC): 0.5 µg/mL (≈ 0.823 µM)
- MIC [8]: 2 µg/mL (≈ 3.29 µM)
- Cmax [28]: 990 ng/mL
- MIC [29]: 1 µg/mL (≈ 1.65 µM)
- Activity [30]: 77%
- MIC [31]: ≥ 128 µg/mL
- ED50 [32]: 1.6 mg/kg
- IC50 [33]: 12000 nM
- MIC [34]: 1 µg/mL (≈ 1.65 µM)
- MIC [35]: 1 µg/mL (≈ 1.65 µM)
- AUC(0-t) at 7 h [36]: 5590 ng·h/mL
- MIC [37]: ≥ 128 µg/mL
- MIC [38]: 0.5 µg/mL (≈ 0.823 µM)
- Activity [39]: < 10%
- MIC [40]: ≤ 0.25 µg/mL
- MIC [41]: 2 µg/mL (≈ 3.29 µM)
- Activity [42]: < 10%
- Activity [43]: < 10%
- MIC [44]: 1 µg/mL (≈ 1.65 µM)
- Activity [45]: inactive
- MIC [46]: ≥ 128 µg/mL
- MIC [47]: < 0.25 µg/mL
- MIC [48]: 0.5 µg/mL (≈ 0.823 µM)
- Activity [49]: < 10%
- Activity [50]: Active
- Activity [51]: < 10%
- Activity [52]: 400 mg/kg
- Activity [53]: < 10%
- MIC [54]: 1 µg/mL (≈ 1.65 µM)

SMILES: COc1ncc([C@H]2c3ccccc3C=NN2C(=O)/C=C/c2cc(Cc3cnc(N)nc3N)cc(OC)c2OC)cn1
- IC50 [1]: 98.3 nM
- MIC [2]: 2 µg/mL (≈ 3.62 µM)
- IC50 [3]: 13.5 nM
- MIC [4]: 0.06 µg/mL (≈ 0.109 µM)
- MIC [5]: 0.125 µg/mL (≈ 0.226 µM)
- IC50 [6]: 3.9 nM
- MIC [7]: 0.25 µg/mL (≈ 0.452 µM)
- MIC [8]: 1 µg/mL (≈ 1.81 µM)

SMILES: Nc1ccc(S(=O)(=O)c2ccc(N)cc2)cc1 [DAPSONE]
- MIC [55]: < 16 µg/mL

SMILES: COc1cc(Cc2cnc(N)nc2N)cc(/C=C/C(=O)N2N=Cc3ccccc3[C@@H]2c2cnc(N(C)C)nc2)c1OC
- IC50 [1]: 35.1 nM
- MIC [2]: 2 µg/mL (≈ 3.54 µM)
- IC50 [3]: 40.9 nM
- MIC [4]: 0.25 µg/mL (≈ 0.442 µM)
- MIC [5]: 0.5 µg/mL (≈ 0.884 µM)
- IC50 [6]: 9.2 nM
- MIC [7]: 0.5 µg/mL (≈ 0.884 µM)
- MIC [8]: 2 µg/mL (≈ 3.54 µM)
